Data from ChEMBL document CHEMBL1201862, “PubChem BioAssay data set” (2004).
Structures can show the parent of a compound that is named as a salt.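 Each compound was tested at five concentrations against cells in 96-well plates for 48 hours. GI50 = concentration required for 50% inhibition of growth.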 Activity calls are given as the source filed them. No stated cut-off is given here; in the data, active = GI50 up to about 1.1 µM and inactive = higher.

What was measured:
Assay in all cases: NCI tumour cell line growth inhibition, 48 h
[1] = system: NCI/ADR-RES
[2] = system: OVCAR-3
[3] = system: HCT-116
[4] = system: MDA-MB-231
[5] = system: M14
[6] = system: SNB-19
[7] = system: T47D
[8] = system: SN12C
[9] = system: EKVX
[10] = system: NCI-H522
[11] = system: SK-OV-3
[12] = system: MDA-MB-435
[13] = system: SNB-75
[14] = system: 786-0
[15] = system: SK-MEL-28
[16] = system: Hs-578T
[17] = system: A549
[18] = system: HOP-92
[19] = system: SW-620
[20] = system: SF-539

NCCNCC1CCNCC1
GI50 [1]: > 100 µM (inactive) | GI50 [2]: > 100 µM (inactive) | GI50 [3]: > 100 µM (inactive) | GI50 [4]: > 100 µM (inactive) | GI50 [5]: > 100 µM (inactive) | GI50 [6]: > 100 µM (inactive) | GI50 [7]: > 100 µM (inactive) | GI50 [8]: > 100 µM (inactive) | GI50 [9]: > 100 µM (inactive) | GI50 [10]: > 100 µM (inactive) | GI50 [11]: > 100 µM (inactive) | GI50 [12]: > 100 µM (inactive) | GI50 [13]: > 100 µM (inactive) | GI50 [14]: > 100 µM (inactive) | GI50 [15]: > 100 µM (inactive) | GI50 [16]: > 100 µM (inactive) | GI50 [17]: > 100 µM (inactive) | GI50 [18]: > 100 µM (inactive) | GI50 [19]: > 100 µM (inactive) | GI50 [20]: > 100 µM (inactive)

CCOC(=O)/C=C(/C(=O)OCC)n1c(=O)c(C)cn(C2CC(N=[N+]=[N-])C(CO)O2)c1=O (stereo not given)
GI50 [1]: > 100 µM (inactive) | GI50 [2]: 19.5 µM (inactive) | GI50 [3]: 37.2 µM (inactive) | GI50 [4]: 20.7 µM (inactive) | GI50 [5]: 26.4 µM (inactive) | GI50 [6]: > 100 µM (inactive) | GI50 [7]: 27.2 µM (inactive) | GI50 [8]: 37.2 µM (inactive) | GI50 [9]: 28.1 µM (inactive) | GI50 [10]: 20.7 µM (inactive) | GI50 [11]: > 100 µM (inactive) | GI50 [12]: 29.6 µM (inactive) | GI50 [13]: 56.9 µM (inactive) | GI50 [14]: 25.4 µM (inactive) | GI50 [15]: 29.4 µM (inactive) | GI50 [16]: 51.2 µM (inactive) | GI50 [17]: 33.9 µM (inactive) | GI50 [18]: 30.8 µM (inactive) | GI50 [19]: 17 µM (inactive) | GI50 [20]: 22.1 µM (inactive)

CC(C)C(NCc1c(O)ccc2c(-c3ccccc3)cc(=O)oc12)C(=O)O (stereo not given)
GI50 [1]: > 100 µM (inactive) | GI50 [2]: > 100 µM (inactive) | GI50 [3]: > 100 µM (inactive) | GI50 [4]: > 100 µM (inactive) | GI50 [5]: > 100 µM (inactive) | GI50 [6]: > 100 µM (inactive) | GI50 [7]: > 100 µM (inactive) | GI50 [8]: > 100 µM (inactive) | GI50 [9]: > 100 µM (inactive) | GI50 [10]: > 100 µM (inactive) | GI50 [11]: > 100 µM (inactive) | GI50 [12]: > 100 µM (inactive) | GI50 [13]: 83.9 µM (inactive) | GI50 [14]: > 100 µM (inactive) | GI50 [15]: > 100 µM (inactive) | GI50 [16]: > 100 µM (inactive) | GI50 [17]: > 100 µM (inactive) | GI50 [18]: > 100 µM (inactive) | GI50 [19]: > 100 µM (inactive) | GI50 [20]: > 100 µM (inactive)

Fc1ccc(C(=C2CCN(CCc3ccc4[nH]c(=S)[nH]c4c3)CC2)c2ccc(F)cc2)cc1
GI50 [1]: 8.59 µM (inactive) | GI50 [2]: 2.1 µM (inactive) | GI50 [3]: 1.79 µM (inactive) | GI50 [4]: 4.43 µM (inactive) | GI50 [5]: 1.83 µM (inactive) | GI50 [6]: 12.4 µM (inactive) | GI50 [7]: 1.92 µM (inactive) | GI50 [8]: 4.52 µM (inactive) | GI50 [9]: 3.51 µM (inactive) | GI50 [10]: 1.52 µM (inactive) | GI50 [11]: 18.7 µM (inactive) | GI50 [12]: 1.79 µM (inactive) | GI50 [13]: 2.92 µM (inactive) | GI50 [14]: 1.86 µM (inactive) | GI50 [15]: 1.51 µM (inactive) | GI50 [16]: 10.9 µM (inactive) | GI50 [17]: 3.94 µM (inactive) | GI50 [18]: 2.62 µM (inactive) | GI50 [19]: 2.47 µM (inactive) | GI50 [20]: 2.79 µM (inactive)

O=[N+]([O-])c1cc(-c2nc(-c3ccccc3)c(-c3ccccc3)[nH]2)c(O)c([N+](=O)[O-])c1
GI50 [1]: 19.1 µM (inactive) | GI50 [2]: 33 µM (inactive) | GI50 [3]: 17.7 µM (inactive) | GI50 [4]: 22.4 µM (inactive) | GI50 [5]: 21.1 µM (inactive) | GI50 [6]: 36.9 µM (inactive) | GI50 [7]: 20.3 µM (inactive) | GI50 [8]: 26.5 µM (inactive) | GI50 [9]: 23.4 µM (inactive) | GI50 [10]: 20.2 µM (inactive) | GI50 [11]: 20.2 µM (inactive) | GI50 [12]: 32.6 µM (inactive) | GI50 [13]: 23 µM (inactive) | GI50 [14]: 21.6 µM (inactive) | GI50 [15]: 31.7 µM (inactive) | GI50 [16]: 27.4 µM (inactive) | GI50 [17]: 34.4 µM (inactive) | GI50 [18]: 19.8 µM (inactive) | GI50 [19]: 27.5 µM (inactive) | GI50 [20]: 19.5 µM (inactive)

O=[N+]([O-])c1ccc2ncccc2c1CCc1c([N+](=O)[O-])ccc2ncccc12
GI50 [1]: > 100 µM (inactive) | GI50 [2]: > 100 µM (inactive) | GI50 [3]: > 100 µM (inactive) | GI50 [4]: > 100 µM (inactive) | GI50 [5]: > 100 µM (inactive) | GI50 [6]: > 100 µM (inactive) | GI50 [7]: > 100 µM (inactive) | GI50 [8]: > 100 µM (inactive) | GI50 [9]: > 100 µM (inactive) | GI50 [10]: > 100 µM (inactive) | GI50 [11]: > 100 µM (inactive) | GI50 [12]: > 100 µM (inactive) | GI50 [13]: > 100 µM (inactive) | GI50 [14]: > 100 µM (inactive) | GI50 [15]: > 100 µM (inactive) | GI50 [16]: > 100 µM (inactive) | GI50 [17]: > 100 µM (inactive) | GI50 [18]: > 35.3 µM (inactive) | GI50 [19]: > 100 µM (inactive) | GI50 [20]: > 100 µM (inactive)

COC(=O)C(Cc1ccc(Oc2cc(CC(NC(=O)c3ccccc3)C(=O)OC)ccc2OC)cc1)NC(=O)c1ccccc1 (stereo not given)
GI50 [1]: 35.2 µM (inactive) | GI50 [2]: 24.7 µM (inactive) | GI50 [3]: 30.3 µM (inactive) | GI50 [4]: 21.9 µM (inactive) | GI50 [5]: 6.95 µM (inactive) | GI50 [6]: 35.5 µM (inactive) | GI50 [7]: 6.04 µM (inactive) | GI50 [8]: 6.64 µM (inactive) | GI50 [9]: 29.8 µM (inactive) | GI50 [10]: 7.29 µM (inactive) | GI50 [11]: > 84.9 µM (inactive) | GI50 [12]: 18.4 µM (inactive) | GI50 [13]: 29.7 µM (inactive) | GI50 [14]: 7.83 µM (inactive) | GI50 [15]: 8.49 µM (inactive) | GI50 [16]: 23 µM (inactive) | GI50 [17]: 25.7 µM (inactive) | GI50 [18]: 21.6 µM (inactive) | GI50 [19]: 39.3 µM (inactive) | GI50 [20]: 30.1 µM (inactive)

Cc1cc(C)nc(NS(=O)(=O)c2ccc(NNc3c4ccccc4nc4c(C(=O)Nc5ccc(S(=O)(=O)Nc6ncccn6)cc5)cccc34)cc2)n1
GI50 [1]: > 100 µM (inactive) | GI50 [2]: 19.2 µM (inactive) | GI50 [3]: 17.4 µM (inactive) | GI50 [4]: 31.3 µM (inactive) | GI50 [5]: 33.7 µM (inactive) | GI50 [6]: 34.6 µM (inactive) | GI50 [7]: 26.1 µM (inactive) | GI50 [8]: 20.4 µM (inactive) | GI50 [9]: 19.5 µM (inactive) | GI50 [10]: 18.7 µM (inactive) | GI50 [11]: 31.5 µM (inactive) | GI50 [12]: 21.5 µM (inactive) | GI50 [13]: 37.5 µM (inactive) | GI50 [14]: 39.3 µM (inactive) | GI50 [15]: 29.5 µM (inactive) | GI50 [16]: 71.8 µM (inactive) | GI50 [17]: 38.7 µM (inactive) | GI50 [18]: 27.3 µM (inactive) | GI50 [19]: 21.6 µM (inactive) | GI50 [20]: 27 µM (inactive)

CC(=O)Nc1cc2nc3n(c2cc1C)CCC3OC(C)=O (stereo not given)
GI50 [1]: > 100 µM (inactive) | GI50 [2]: > 100 µM (inactive) | GI50 [3]: > 100 µM (inactive) | GI50 [4]: > 100 µM (inactive) | GI50 [5]: > 100 µM (inactive) | GI50 [6]: > 100 µM (inactive) | GI50 [7]: > 100 µM (inactive) | GI50 [8]: > 100 µM (inactive) | GI50 [9]: > 100 µM (inactive) | GI50 [10]: > 100 µM (inactive) | GI50 [11]: > 100 µM (inactive) | GI50 [12]: > 100 µM (inactive) | GI50 [13]: > 100 µM (inactive) | GI50 [14]: > 100 µM (inactive) | GI50 [15]: > 100 µM (inactive) | GI50 [16]: > 100 µM (inactive) | GI50 [17]: > 100 µM (inactive) | GI50 [18]: > 100 µM (inactive) | GI50 [19]: > 100 µM (inactive) | GI50 [20]: > 100 µM (inactive)

O=C1c2cccc3cccc(c23)C(=O)N1CCCNCCCCNCCCNCCCN1C(=O)c2cccc3cccc(c23)C1=O [BISNAPHTHALIMIDOPROPYL SPERMIDINE TRIHYDROBROMIDE]
GI50 [1]: 19.9 µM (inactive) | GI50 [2]: 0.662 µM (active) | GI50 [3]: 0.399 µM (active) | GI50 [4]: 1.06 µM (active) | GI50 [5]: 1.52 µM (inactive) | GI50 [6]: 0.403 µM (active) | GI50 [7]: 1.12 µM (inactive) | GI50 [8]: 0.521 µM (active) | GI50 [9]: 1.18 µM (inactive) | GI50 [10]: 0.0859 µM (active) | GI50 [11]: 1.5 µM (inactive) | GI50 [12]: 0.74 µM (active) | GI50 [13]: 0.319 µM (active) | GI50 [14]: 0.175 µM (active) | GI50 [15]: 1.39 µM (inactive) | GI50 [16]: 0.0378 µM (active) | GI50 [17]: 0.301 µM (active) | GI50 [18]: 0.935 µM (active) | GI50 [19]: 0.555 µM (active) | GI50 [20]: 0.585 µM (active)
